In ChEMBL document CHEMBL3885861, “Open TG-GATES”:

Organism: Rattus norvegicus
Assay: Open TG-GATES - Regimen: Daily Repeat
Assay type: toxicity, organism-based, Sprague-Dawley
Parameters: regimen Daily Repeat, gender Male, age 6 weeks
Details: in vivo, po, 0 mg/kg, route gavage, dose level Control; for APTT / Bas / Eos / Fbg / Hb / Ht / Lym / MCHC / MCV / Mono / Neu / PT / Plat / RBC / Ret / WBC: tissue Blood; for KIDNEY_L / KIDNEY_R / KIDNEY_TOTAL: tissue Kidney; for LIVER: tissue Liver; for ALP / ALT / AST / BUN / CRE / Ca / Cl / DBIL / GLC / IP / K / LDH / Na / PL / RALB / TBIL / TC / TG / TP / gamma-GTP: tissue Plasma

C1CCC(C(CC2CCCCN2)C2CCCCC2)CC1 (centres undefined) [PERHEXILINE]
TERMINAL_BW (72 h, time 3 day): 228.9 g
APTT (72 h, time 3 day): 21.9 s
Bas (72 h, time 3 day): 0%
Eos (72 h, time 3 day): 0.8%
Fbg (72 h, time 3 day): 312.4 mg/dL
Hb (72 h, time 3 day): 13.2 g/dL
Ht (72 h, time 3 day): 39.2%
Lym (72 h, time 3 day): 79%
MCHC (72 h, time 3 day): 33.8%
MCV (72 h, time 3 day): 63.9 fL
Mono (72 h, time 3 day): 2.8%
Neu (72 h, time 3 day): 16.2%
PT (72 h, time 3 day): 16.7 s
Plat (72 h, time 3 day): 133 x10_4/uL
RBC (72 h, time 3 day): 613.6 x10_4/ul
Ret (72 h, time 3 day): 7%
WBC (72 h, time 3 day): 89.3 x10_2/uL
KIDNEY_L (72 h, time 3 day): 1.1 g
KIDNEY_R (72 h, time 3 day): 1 g
KIDNEY_TOTAL (72 h, time 3 day): 2.1 g
LIVER (72 h, time 3 day): 11.1 g
ALP (72 h, time 3 day): 1695 IU/L
ALT (72 h, time 3 day): 45.8 IU/L
AST (72 h, time 3 day): 76.4 IU/L
BUN (72 h, time 3 day): 16.4 mg/dL
CRE (72 h, time 3 day): 0.1 mg/dL
Ca (72 h, time 3 day): 11 mg/dL
Cl (72 h, time 3 day): 107.2 meq/L
DBIL (72 h, time 3 day): 0 mg/dL
GLC (72 h, time 3 day): 192.6 mg/dL
IP (72 h, time 3 day): 6.9 mg/dL
K (72 h, time 3 day): 4.3 meq/L
LDH (72 h, time 3 day): 248.8 IU/L
Na (72 h, time 3 day): 143.2 meq/L
PL (72 h, time 3 day): 149.4 mg/dL
RALB (72 h, time 3 day): 3.2 g/dL
TBIL (72 h, time 3 day): 0.01 mg/dL
TC (72 h, time 3 day): 75.6 mg/dL
TG (72 h, time 3 day): 113.8 mg/dL
TP (72 h, time 3 day): 5.8 g/dL
gamma-GTP (72 h, time 3 day): 1 IU/L
TERMINAL_BW ([…], time 7 day): 255.2 g
TERMINAL_BW ([…], time 14 day): 290.3 g
TERMINAL_BW ([…], time 28 day): 335.5 g
APTT ([…], time 7 day): 21.5 s
Bas ([…], time 7 day): 0%
Eos ([…], time 7 day): 0.6%
Fbg ([…], time 7 day): 316.4 mg/dL
Hb ([…], time 7 day): 13.5 g/dL
Ht ([…], time 7 day): 38.5%
Lym ([…], time 7 day): 81.8%
MCHC ([…], time 7 day): 35.2%
MCV ([…], time 7 day): 61.3 fL
Mono ([…], time 7 day): 1.4%
Neu ([…], time 7 day): 15%
PT ([…], time 7 day): 16.1 s
Plat ([…], time 7 day): 118.5 x10_4/uL
RBC ([…], time 7 day): 629 x10_4/ul
Ret ([…], time 7 day): 5.6%
WBC ([…], time 7 day): 110.4 x10_2/uL
APTT ([…], time 14 day): 23.3 s
Bas ([…], time 14 day): 0%
Eos ([…], time 14 day): 0.2%
Fbg ([…], time 14 day): 294 mg/dL
Hb ([…], time 14 day): 15 g/dL
Ht ([…], time 14 day): 42.7%
Lym ([…], time 14 day): 82%
MCHC ([…], time 14 day): 35.2%
MCV ([…], time 14 day): 60.8 fL
Mono ([…], time 14 day): 1.2%
Neu ([…], time 14 day): 15.2%
PT ([…], time 14 day): 16.2 s
Plat ([…], time 14 day): 116.2 x10_4/uL
RBC ([…], time 14 day): 702.8 x10_4/ul
Ret ([…], time 14 day): 3.5%
WBC ([…], time 14 day): 97.2 x10_2/uL
APTT ([…], time 28 day): 21.5 s
Bas ([…], time 28 day): 0%
Eos ([…], time 28 day): 0.6%
Fbg ([…], time 28 day): 316.4 mg/dL
Hb ([…], time 28 day): 13.5 g/dL
Ht ([…], time 28 day): 38.5%
Lym ([…], time 28 day): 81.8%
MCHC ([…], time 28 day): 35.2%
MCV ([…], time 28 day): 61.3 fL
Mono ([…], time 28 day): 1.4%
Neu ([…], time 28 day): 15%
PT ([…], time 28 day): 16.1 s
Plat ([…], time 28 day): 118.5 x10_4/uL
RBC ([…], time 28 day): 629 x10_4/ul
Ret ([…], time 28 day): 5.6%
WBC ([…], time 28 day): 110.4 x10_2/uL
KIDNEY_L ([…], time 7 day): 1.1 g
KIDNEY_R ([…], time 7 day): 1.1 g
KIDNEY_TOTAL ([…], time 7 day): 2.2 g
KIDNEY_L ([…], time 14 day): 1.1 g
KIDNEY_R ([…], time 14 day): 1.1 g
KIDNEY_TOTAL ([…], time 14 day): 2.3 g
KIDNEY_L ([…], time 28 day): 1.2 g
KIDNEY_R ([…], time 28 day): 1.2 g
KIDNEY_TOTAL ([…], time 28 day): 2.5 g
LIVER ([…], time 7 day): 11.8 g
LIVER ([…], time 14 day): 12.3 g
LIVER ([…], time 28 day): 12.9 g
ALP ([…], time 7 day): 1691 IU/L
ALT ([…], time 7 day): 38 IU/L
AST ([…], time 7 day): 67.6 IU/L
BUN ([…], time 7 day): 18.6 mg/dL
CRE ([…], time 7 day): 0.2 mg/dL
Ca ([…], time 7 day): 10.5 mg/dL
Cl ([…], time 7 day): 106.6 meq/L
DBIL ([…], time 7 day): 0.002 mg/dL
GLC ([…], time 7 day): 190.4 mg/dL
IP ([…], time 7 day): 6.8 mg/dL
K ([…], time 7 day): 4.1 meq/L
LDH ([…], time 7 day): 174.2 IU/L
Na ([…], time 7 day): 143.6 meq/L
PL ([…], time 7 day): 152.6 mg/dL
RALB ([…], time 7 day): 3.1 g/dL
TBIL ([…], time 7 day): 0.014 mg/dL
TC ([…], time 7 day): 79.8 mg/dL
TG ([…], time 7 day): 101 mg/dL
TP ([…], time 7 day): 5.8 g/dL
gamma-GTP ([…], time 7 day): 1.6 IU/L
ALP ([…], time 14 day): 1487.8 IU/L
ALT ([…], time 14 day): 39.2 IU/L
AST ([…], time 14 day): 71.8 IU/L
BUN ([…], time 14 day): 19 mg/dL
CRE ([…], time 14 day): 0.2 mg/dL
Ca ([…], time 14 day): 10.2 mg/dL
Cl ([…], time 14 day): 107 meq/L
DBIL ([…], time 14 day): 0 mg/dL
GLC ([…], time 14 day): 192 mg/dL
IP ([…], time 14 day): 6.1 mg/dL
K ([…], time 14 day): 4.2 meq/L
LDH ([…], time 14 day): 180 IU/L
Na ([…], time 14 day): 143.2 meq/L
PL ([…], time 14 day): 134 mg/dL
RALB ([…], time 14 day): 3.2 g/dL
TBIL ([…], time 14 day): 0.005 mg/dL
TC ([…], time 14 day): 59 mg/dL
TG ([…], time 14 day): 131.5 mg/dL
TP ([…], time 14 day): 5.8 g/dL
gamma-GTP ([…], time 14 day): 1 IU/L
ALP ([…], time 28 day): 1236.4 IU/L
ALT ([…], time 28 day): 34.4 IU/L
AST ([…], time 28 day): 60 IU/L
BUN ([…], time 28 day): 17.8 mg/dL
CRE ([…], time 28 day): 0.2 mg/dL
Ca ([…], time 28 day): 10.1 mg/dL
Cl ([…], time 28 day): 108.6 meq/L
DBIL ([…], time 28 day): 0 mg/dL
GLC ([…], time 28 day): 204.2 mg/dL
IP ([…], time 28 day): 5.6 mg/dL
K ([…], time 28 day): 4.2 meq/L
LDH ([…], time 28 day): 148.4 IU/L
Na ([…], time 28 day): 143.6 meq/L
PL ([…], time 28 day): 129.6 mg/dL
RALB ([…], time 28 day): 3 g/dL
TBIL ([…], time 28 day): 0.008 mg/dL
TC ([…], time 28 day): 63 mg/dL
TG ([…], time 28 day): 92.8 mg/dL
TP ([…], time 28 day): 6 g/dL
gamma-GTP ([…], time 28 day): 1.4 IU/L
